In PubChem BioAssay (NCI) one finds TGI data, which are given here for 29 compounds.

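In this assay, cells in 96-well plates receive the compound at five concentrations for 48 hours. Endpoints are linearly interpolated between the surrounding concentrations. TGI: concentration producing complete growth inhibition.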 A value given as a limit tells only on which side of the number the result lay.

The first test concerns IGROV1 ovarian. In words: NCI-60 cell line screen, 48 h.
On to `CCC1(C(=O)OC(C)(C)C)OC12C(C)CCCC2C` (stereo unspecified), for which the TGI was more than 100 µM.
Same read-out and setting: then `Cc1ccc(-c2cc(N)n(-c3nc4c(c(=O)n(C)c(=O)n4C)n3C)n2)cc1`, with more than 100 µM; and `CN(C)c1ccc(C2SCC(=O)N2NS(=O)(=O)c2cccc(C(=O)O)c2)cc1` (stereo unspecified), with more than 100 µM; and `CC1CCOc2ccc(cc2)C=Nc2ccc(cc2)CCc2ccc(cc2)N=Cc2ccc(cc2)OCC1` (stereo unspecified), with more than 100 µM.
On the same count and under the same terms, the figure for `COC(=O)[C@H](Cc1ccccc1)NC(=O)[C@H](Cc1ccccc1)NC(=O)[C@@H]1CCCN1C(=O)N[C@H]1C2C=CC(C2)C1C(=O)N1CCC[C@H]1C(=O)N[C@@H](C)C(=O)N[C@H](C(=O)OC)C(C)C` (stereo partly specified) is more than 100 µM.
The compound `O=C1c2ccccc2-c2nc(-c3cccc([N+](=O)[O-])c3)nnc21` had a TGI of more than 100 µM.
For `CC(=O)N1N=C(c2ccc3ccccc3c2O)CC1C(=O)c1ccco1` (stereo unspecified), the TGI is more than 100 µM.
As to `N#Cc1nc(-c2cccs2)oc1N`, the TGI is more than 100 µM.
In turn, `NC(=O)NNC(=O)c1nc[nH]c1[N+](=O)[O-]` registered a TGI of more than 100 µM.
The same measure, in the same setting: the figure for `O=c1c2c([N+](=O)[O-])cccc2nc2[nH]c3ccccc3n12` is 37.1 µM; for `Cc1cc(C)cc(Nc2cc(=O)[nH]c(=O)[nH]2)c1` it is more than 100 µM; for `O=c1[nH]/c(=C/c2ccc(OCc3ccccc3)cn2)c(=O)[nH]/c1=C/c1ccc(O)cc1` it is 13.4 µM.
Consider `N#C/C(=C\n1ccc(=O)[nH]c1=S)C(N)=O`, for which the TGI was more than 100 µM.
On the same count and under the same terms, then `O=C(NCCCCCCNCc1cccc2ccccc12)Nc1cccc2ccccc12`, with more than 100 µM.
The same measure, in the same setting: then `Cc1ccc([C@H]2CC(=O)C[C@H](c3ccc(C)cc3)C23C(=O)c2ccccc2C3=O)cc1`, with more than 100 µM; and `NCCSc1nc2ccccc2c(=O)n1-c1ccccc1`, with more than 100 µM.
The same measure, in the same setting: then `COC(=O)C1=CC(=O)OC1(OO)c1ccccc1` (stereo unspecified), with more than 100 µM.
`Nc1ccc(N=Nc2ccccc2)cc1`: the TGI is more than 100 µM.
Still for that read-out and setting: the figure for `CN(NC(=O)c1cccs1)C1=NCCCN1` is more than 100 µM; for `Cc1ccn2c(=O)cc(-c3ccccc3)nc2c1` it is more than 100 µM; for `O=c1[nH]nc(Cc2ccc([N+](=O)[O-])cc2)n1CCO` it is more than 100 µM.
`CCn1nc2c3c(ncn3C(C)(C)O2)c1=O`: the TGI is more than 100 µM.
Still for that read-out and setting: the figure for `CCCCCC(=O)NC(=S)Nc1nn[nH]n1` is more than 100 µM; for `CCC(C#N)NC(=O)NC(C#N)CC` (stereo unspecified) it is more than 100 µM; for `C[C@H](N)C(=O)Nc1ccc(-c2nc3ccccc3s2)cc1` it is 40.4 µM.
In turn, `Cc1ccc2c(c1)[nH]c1cc(C(F)(F)F)ccc1[p+]2=O` (stereo unspecified) showed a TGI of more than 100 µM.
Same read-out and setting: then `NCCN=C(Nc1ccccc1)Nc1ccccc1`, with more than 100 µM; and `COC(=O)C1=C(C(=O)OC)SC2(S1)C1=C(CCCC1)SC(C(=O)OC)=C2C(=O)OC`, with 20.6 µM; and `C/C=C/C(O)P1(=O)N(Cc2ccccc2)[C@@H]2CCCC[C@H]2N1Cc1ccccc1` (stereo partly specified), with more than 25 µM.

In a further test the test system is SNB-75 CNS. In words: NCI-60 cell line screen, 48 h.
`CCC1(C(=O)OC(C)(C)C)OC12C(C)CCCC2C` (stereo unspecified) registered a TGI of 97.7 µM.
For the compound `CN(C)c1ccc(C2SCC(=O)N2NS(=O)(=O)c2cccc(C(=O)O)c2)cc1` (stereo unspecified), the TGI is more than 100 µM.
Regarding `CC1CCOc2ccc(cc2)C=Nc2ccc(cc2)CCc2ccc(cc2)N=Cc2ccc(cc2)OCC1` (stereo unspecified), the TGI amounted to 77.3 µM.
With `COC(=O)[C@H](Cc1ccccc1)NC(=O)[C@H](Cc1ccccc1)NC(=O)[C@@H]1CCCN1C(=O)N[C@H]1C2C=CC(C2)C1C(=O)N1CCC[C@H]1C(=O)N[C@@H](C)C(=O)N[C@H](C(=O)OC)C(C)C` (stereo partly specified), the TGI was more than 100 µM.
Still for that read-out and setting: the figure for `O=C1c2ccccc2-c2nc(-c3cccc([N+](=O)[O-])c3)nnc21` is 59 µM.
`CC(=O)N1N=C(c2ccc3ccccc3c2O)CC1C(=O)c1ccco1` (stereo unspecified) displayed a TGI of more than 100 µM.
Same read-out and setting: the figure for `N#Cc1nc(-c2cccs2)oc1N` is more than 100 µM; for `NC(=O)NNC(=O)c1nc[nH]c1[N+](=O)[O-]` it is more than 100 µM; for `Cc1cc(C)cc(Nc2cc(=O)[nH]c(=O)[nH]2)c1` it is more than 100 µM.
Still for that read-out and setting: the figure for `O=c1[nH]/c(=C/c2ccc(OCc3ccccc3)cn2)c(=O)[nH]/c1=C/c1ccc(O)cc1` is 3.05 µM; for `N#C/C(=C\n1ccc(=O)[nH]c1=S)C(N)=O` it is more than 100 µM.
Same read-out and setting: the figure for `O=C(NCCCCCCNCc1cccc2ccccc12)Nc1cccc2ccccc12` is more than 100 µM; for `Cc1ccc([C@H]2CC(=O)C[C@H](c3ccc(C)cc3)C23C(=O)c2ccccc2C3=O)cc1` it is 34.1 µM.
Consider `NCCSc1nc2ccccc2c(=O)n1-c1ccccc1`, for which the TGI was more than 100 µM.
Still for that read-out and setting: the figure for `COC(=O)C1=CC(=O)OC1(OO)c1ccccc1` (stereo unspecified) is more than 100 µM; for `Nc1ccc(N=Nc2ccccc2)cc1` it is 56 µM; for `CN(NC(=O)c1cccs1)C1=NCCCN1` it is more than 100 µM.
With `Cc1ccn2c(=O)cc(-c3ccccc3)nc2c1`, the TGI was more than 100 µM.
`CCCCCC(=O)NC(=S)Nc1nn[nH]n1` displayed a TGI of more than 100 µM.
Same read-out and setting: then `C[C@H](N)C(=O)Nc1ccc(-c2nc3ccccc3s2)cc1`, with 41.6 µM; and `Cc1ccc2c(c1)[nH]c1cc(C(F)(F)F)ccc1[p+]2=O` (stereo unspecified), with 55.9 µM.
The same measure, in the same setting: then `NCCN=C(Nc1ccccc1)Nc1ccccc1`, with more than 100 µM.
Still for that read-out and setting: then `C/C=C/C(O)P1(=O)N(Cc2ccccc2)[C@@H]2CCCC[C@H]2N1Cc1ccccc1` (stereo partly specified), with more than 25 µM.

A further test relates to SK-MEL-5 melanoma. In words: NCI-60 cell line screen, 48 h.
`CCC1(C(=O)OC(C)(C)C)OC12C(C)CCCC2C` (stereo unspecified) came in with a TGI of more than 100 µM.
Still for that read-out and setting: the figure for `Cc1ccc(-c2cc(N)n(-c3nc4c(c(=O)n(C)c(=O)n4C)n3C)n2)cc1` is more than 100 µM; for `CN(C)c1ccc(C2SCC(=O)N2NS(=O)(=O)c2cccc(C(=O)O)c2)cc1` (stereo unspecified) it is more than 100 µM.
On the same count and under the same terms, then `CC1CCOc2ccc(cc2)C=Nc2ccc(cc2)CCc2ccc(cc2)N=Cc2ccc(cc2)OCC1` (stereo unspecified), with more than 100 µM.
The same measure, in the same setting: the figure for `COC(=O)[C@H](Cc1ccccc1)NC(=O)[C@H](Cc1ccccc1)NC(=O)[C@@H]1CCCN1C(=O)N[C@H]1C2C=CC(C2)C1C(=O)N1CCC[C@H]1C(=O)N[C@@H](C)C(=O)N[C@H](C(=O)OC)C(C)C` (stereo partly specified) is more than 100 µM; for `O=C1c2ccccc2-c2nc(-c3cccc([N+](=O)[O-])c3)nnc21` it is 7.65 µM; for `CC(=O)N1N=C(c2ccc3ccccc3c2O)CC1C(=O)c1ccco1` (stereo unspecified) it is more than 100 µM.
In turn, `N#Cc1nc(-c2cccs2)oc1N` gave a TGI of more than 100 µM.
Still for that read-out and setting: the figure for `NC(=O)NNC(=O)c1nc[nH]c1[N+](=O)[O-]` is more than 100 µM.
Same read-out and setting: then `O=c1c2c([N+](=O)[O-])cccc2nc2[nH]c3ccccc3n12`, with more than 75 µM; and `Cc1cc(C)cc(Nc2cc(=O)[nH]c(=O)[nH]2)c1`, with more than 100 µM.
The same measure, in the same setting: then `O=c1[nH]/c(=C/c2ccc(OCc3ccccc3)cn2)c(=O)[nH]/c1=C/c1ccc(O)cc1`, with 20.8 µM; and `N#C/C(=C\n1ccc(=O)[nH]c1=S)C(N)=O`, with more than 100 µM.
Consider `O=C(NCCCCCCNCc1cccc2ccccc12)Nc1cccc2ccccc12`, for which the TGI was more than 100 µM.
